Test results taken from publication PMC4467461, “Small-molecule activation of SERCA2a SUMOylation for the treatment of heart failure” (Nature Communications, 2015).

Target: T1, SUMO E1 (Homo sapiens, UniProt Q9UBE0+Q9UBT2)
T1 construct: purchased R&D Systems
T1 sequence (Q9UBE0 1-346): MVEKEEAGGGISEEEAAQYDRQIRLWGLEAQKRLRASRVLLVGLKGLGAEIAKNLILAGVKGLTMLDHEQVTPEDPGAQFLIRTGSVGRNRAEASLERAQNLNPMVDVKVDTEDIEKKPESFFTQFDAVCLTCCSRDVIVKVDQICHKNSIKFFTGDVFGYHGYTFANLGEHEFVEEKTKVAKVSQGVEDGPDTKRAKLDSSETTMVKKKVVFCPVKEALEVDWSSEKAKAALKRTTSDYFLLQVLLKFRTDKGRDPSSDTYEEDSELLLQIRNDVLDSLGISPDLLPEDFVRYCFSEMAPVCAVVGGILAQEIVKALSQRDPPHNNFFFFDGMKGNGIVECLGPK
T1 sequence (Q9UBT2 1-640): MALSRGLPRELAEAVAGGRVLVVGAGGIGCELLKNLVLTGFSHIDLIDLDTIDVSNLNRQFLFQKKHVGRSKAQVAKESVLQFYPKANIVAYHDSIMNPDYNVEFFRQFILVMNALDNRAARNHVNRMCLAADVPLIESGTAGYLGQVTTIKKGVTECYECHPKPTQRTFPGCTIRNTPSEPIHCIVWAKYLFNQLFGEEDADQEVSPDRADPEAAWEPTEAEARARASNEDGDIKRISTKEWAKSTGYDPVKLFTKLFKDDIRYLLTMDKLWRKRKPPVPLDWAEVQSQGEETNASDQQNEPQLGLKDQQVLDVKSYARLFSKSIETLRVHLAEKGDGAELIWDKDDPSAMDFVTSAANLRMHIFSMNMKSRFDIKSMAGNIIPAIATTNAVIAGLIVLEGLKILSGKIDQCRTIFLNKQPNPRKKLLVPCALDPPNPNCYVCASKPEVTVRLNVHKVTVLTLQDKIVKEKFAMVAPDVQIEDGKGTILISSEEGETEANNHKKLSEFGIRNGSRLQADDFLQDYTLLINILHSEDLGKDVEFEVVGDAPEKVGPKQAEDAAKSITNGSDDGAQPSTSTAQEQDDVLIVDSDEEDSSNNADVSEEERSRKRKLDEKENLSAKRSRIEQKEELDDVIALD
Assay: In-vitro E1-SUMO-1 and E1-dependent E2-SUMO-1 thioester formation (gel shift / western blot)
Assay type: biochemical
Protocol: Figure 3 SUMO-specific activating enzyme, E1, is a direct target of N106. Mechanism of action of N106 on individual steps in the SUMOylation cascade in vitro. (a) Inorganic pyrophosphate resulting from ATP hydrolysis in E1-catalysed SUMO-1 activation in the presence of increasing concentration of N106 compound was assessed by fluorogenic pyrophosphate assay kit. Recombinant human SUMO-specific E1 (0.05 μM), human Ubc9 (0.25 μM), human SUMO-1 (12.5 μM) and ATP (1 mM) were incubated with increasing concentration of N106 for 30 min at 37 °C and quantified using a fluorescence microplate reader. (b) The SAE2-SUMO-1 conjugation was detected followed by western blotting with anti-SAE2 antibodies. SUMO E1 (0.05 μM), SUMO-1 (12.5 μM) and ATP (1 mM) were co-incubated with increasing concentration of N106 for 30 min at 37 °C. The reaction mixtures were separated on 7.5% SDS–PAGE gel under non-reducing conditions. (c) E2-SUMO-1 conjugation was visualized by western blotting with anti-Ubc9 antibody. SUMO E1 (0.05 μM), Ubc9 (0.25 μM), SUMO-1 (12.5 μM) and ATP (1 mM) were incubated without or with increasing concentration of N106 for 30 min at 37 °C. […] (e) ATP hydrolytic activity of WT and mutant SUMO E1 are determined. (f) The E1-SUMO-1 conjugation was detected followed by western blot analysis with anti-SAE2 antibody. *The SAE2-SUMO-1 conjugated bands. […]
Biochemical activity of SUMO-specific E1 enzymes was examined by ATPase assay and in-vitro gel-shifting assays. ATP hydrolysis activity of E1 enzymes was measured by using pyrophosphate assay kit (Abcam Inc.). […] The E1-thioester formation was analysed in reaction mixtures containing 0.05 μM E1, 12.5 μM SUMO-1 and 1 mM ATP with N106 or DMSO. The E1-dependent E2-SUMO-1 thioester formation was assessed using reaction containing 0.05 μM E1, 0.25 μM E2, 12.5 μM SUMO-1 and 1 mM ATP with N106 or DMSO. Assays were incubated at 37 °C for 30 min and were mixed with non-reducing sample buffer, and analysed in non-reducing condition. Western blotting using antibodies against SAE2 and Ubc9 detected the SUMO conjugations. […]

- SUMO-1 conjugation to SUMO E1 and E1-dependent thioester bond formation between SUMO E2 and SUMO-1 (at 50 μM concentration): less pronounced
- SUMO-1 conjugation to SUMO E1 and E1-dependent thioester bond formation between SUMO E2 and SUMO-1 (at over 100 μM concentration): inhibited
SMILES: COc1ccc(-c2nnc(Nc3nc4c(OC)cccc4s3)o2)cc1 [Compound N106, N-(4-methoxybenzo[d]thiazol-2-yl)-5-(4-methoxyphenyl)-1,3,4-oxadiazol-2-amine]
- maximal tolerated doses for in-vitro thioester formation between the SUMO E1 and SUMO-1 (30 min at 37 °C): ~20 µM
